# Test results reported in ChEMBL document CHEMBL4610081, “Anti-inflammatory Metabolites from Chaetomium nigricolor” (J Nat Prod, 2020).
# Activity calls are given as the source filed them. The calls are words filed in the database; no cut-off is given here.
# System: RAW264.7
# Experiment: Antiinflammatory activity against mouse RAW264.7 cells assessed as inhibition of LPS-induced NO production preincubated for 3 hrs followed by LPS-stimulation and measured after 24 hrs by Griess reagent based assay
# Format: functional, cell-based
compound,measurement,value
COC(=O)CCC(=O)OCc1ccc(C(=O)O)o1,Activity,inactive
